The source of these data is patent publication US9777017B2, “Tricyclic fused thiophene derivatives as JAK inhibitors” (Incyte Corporation, priority 2012, dated 2017).

Holding throughout (format): biochemical
Test [1] addresses human JAK1 (Homo sapiens, UniProt P23458). The test is described as follows: In vitro JAK kinase assay (HTRF, phosphorylation of a biotinylated peptide), JAK1. To be noted: 1 mM ATP. The method, then:
(§1) Compounds herein were tested for inhibitory activity of JAK targets according to the following in vitro assay described in Park et al., Analytical Biochemistry 1999, 269, 94-104. The catalytic domains of human JAK1 (a.a. 837-1142), JAK2 (a.a. 828-1132) and JAK3 (a.a. 781-1124) were expressed using baculovirus in insect cells and purified. The catalytic activity of JAK1, JAK2 or JAK3 was assayed by measuring the phosphorylation of a biotinylated peptide. The phosphorylated peptide was detected by homogenous time resolved fluorescence (HTRF). IC50s of compounds were measured for each kinase in the 40 μL reactions that contain the enzyme, ATP and 500 nM peptide in 50 mM Tris (pH 7.8) buffer with 100 mM NaCl, 5 mM DTT, and 0.1 mg/mL (0.01%) BSA. For the 1 mM IC50 measurements, ATP concentration in the reactions was 1 mM. Reactions were carried out at room temperature for 1 hour and then stopped with 20 μL 45 mM EDTA, 300 nM SA-APC, 6 nM Eu-Py20 in assay buffer (Perkin Elmer, Boston, Mass.). Binding to the Europium labeled antibody took place for 40 minutes and HTRF signal was measured on a PHERA star plate reader (BMG, Cary, N.C.). The Example compounds were each tested in the Example A assay (see Table 1 for data for the compounds of the examples as tested by the assay of Example A at 1 mM ATP).

Test [2] relates to human JAK1. The test is described as above. To be noted: ratio of IC50s, 1 mM ATP. The method, then: as §1
The next test addresses human JAK2 (Homo sapiens (Human), UniProt O60674). The test is described as follows: In vitro JAK kinase assay (HTRF, phosphorylation of a biotinylated peptide), JAK2. Details: key to JAK2 IC50 (nM): +indicates an IC50 of ≦100 nM; ++indicates an IC50 of ≦1000 nM; +++indicates an IC50 of ≦2000 nM; ++++indicates an IC50 of >2000 nM; +++++indicates that the IC50 was greater than the highest concentration tested. To be noted: 1 mM ATP. The method, then:
as §1

human JAK2, sequence (O60674 828-1132): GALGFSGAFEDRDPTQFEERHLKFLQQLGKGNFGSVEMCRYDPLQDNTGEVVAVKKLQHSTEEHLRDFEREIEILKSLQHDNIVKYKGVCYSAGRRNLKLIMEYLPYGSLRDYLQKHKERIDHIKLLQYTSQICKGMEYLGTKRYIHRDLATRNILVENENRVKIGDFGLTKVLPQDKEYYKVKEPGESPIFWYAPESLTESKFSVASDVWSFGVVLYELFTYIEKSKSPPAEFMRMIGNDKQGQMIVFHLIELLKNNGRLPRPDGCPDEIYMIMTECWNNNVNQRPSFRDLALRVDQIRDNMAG

Turning to `CC(C)c1nc2cnc3ccsc3c2n1[C@H]1CC[C@H](CC#N)OC1` [Example 42, [(2R,5S)-5-(2-Isopropyl-1H-imidazo[4,5-d]thieno[3,2-b]pyridin-1-yl)tetrahydro-2H-pyran-2-yl]acetonitrile], the IC50 against human JAK1 [1] is not above 0.1 µM; on human JAK2 it was not above 1 µM. In the test with human JAK1 [2], the JAK2/JAK1 is recorded as more than 10.
The like results for `N#CC[C@H]1CC[C@H](n2c(C3CC3)nc3cnc4ccsc4c32)CO1` [Example 43, [(2R,5S)-5-(2-Cyclopropyl-1H-imidazo[4,5-d]thieno[3,2-b]pyridin-1-yl)tetrahydro-2H-pyran-2-yl]acetonitrile] were, in that order, not above 0.1 µM, not above 1 µM and more than 10.
In the case of `C[C@@H](O)c1nc2cnc3ccsc3c2n1[C@@H]1CC[C@@H](CC#N)OC1` [Example 44, ((2S,5R)-5-{2-[(1R)-1-Hydroxyethyl]-1H-imidazo[4,5-b]thieno[3,2-b]pyridin-1-yl}tetrahydro-2H-pyran-2-yl)acetonitrile], the half-maximal inhibitory concentration (IC50) against human JAK1 [1] is not above 1 µM. For the same molecule, the JAK2/JAK1 with human JAK1 [2] is more than 10. Also, at human JAK2, the “JAK2 IC50 (nM)” value is “+++++”.
In the case of `C[C@H](O)c1nc2cnc3ccsc3c2n1[C@H]1CC[C@H](CC#N)OC1` [Example 45, ((2R,5S)-5-{2-[(1S)-1-Hydroxyethyl]-1H-imidazo[4,5-d]thieno[3,2-b]pyridin-1-yl}tetrahydro-2H-pyran-2-yl)acetonitrile], the 50% inhibitory concentration (IC50) against human JAK1 [1] is not above 0.1 µM; against human JAK2 it was more than 2 µM. In the test with human JAK1 [2], the JAK2/JAK1 is on record as more than 10.
In the case of `CCc1nc2cnc3ccsc3c2n1[C@H]1CC[C@H](CC#N)CC1` [Example 47, [trans-4-(2-Ethyl-1H-imidazo[4,5-d]thieno[3,2-b]pyridin-1-yl)cyclohexyl]acetonitrile], the concentration for half-maximal inhibition (IC50) against human JAK1 [1] was not above 0.1 µM; on human JAK2, not above 1 µM. Further, in the test on human JAK1 [2], the JAK2/JAK1 is more than 10.
The matching figures for `Cc1nc2cnc3ccsc3c2n1[C@H]1CC[C@H](CC#N)CC1` [Example 48, [trans-4-(2-Methyl-1H-imidazo[4,5-d]thieno[3,2-b]pyridin-1-yl)cyclohexyl]acetonitrile]: not above 0.1 µM, not above 0.1 µM and more than 7.
Molecule `C[C@@H](O)c1nc2cnc3ccsc3c2n1[C@H]1CC[C@@H](CC#N)C1.O=C(O)C(F)(F)F` [Example 49, ((4R,3S)-3-{2-[(1R)-1-Hydroxyethyl]-1H-imidazo[4,5-d]thieno[3,2-b]pyridin-1-yl}cyclopentyl)acetonitrile trifluoroacetate] displayed an IC50 against human JAK1 [1] not above 1 µM. The JAK2/JAK1 in the test on human JAK1 [2] is more than 10. The “JAK2 IC50 (nM)” value at human JAK2 is on record as “+++++”.
The like results for `CCOC(=O)N1CCC[C@H](n2c([C@@H](C)O)nc3cnc4ccsc4c32)C1` [Example 50, Ethyl (3S)-3-{2-[(1R)-1-hydroxyethyl]-1H-imidazo[4,5-d]thieno[3,2-b]pyridin-1-yl}piperidine-1-carboxylate] were, in that order, not above 1 µM, more than 10 and “+++++”.
On to `C[C@@H](O)c1nc2cnc3ccsc3c2n1[C@H]1CCCN(C(=O)CC#N)C1.O=C(O)C(F)(F)F` [Example 51, 3-((3S)-3-{2-[(1R)-1-Hydroxyethyl]-1H-imidazo[4,5-d]thieno[3,2-b]pyridin-1-yl}piperidin-1-yl)-3-oxopropanenitrile trifluoroacetate], for which the concentration for half-maximal inhibition (IC50) on human JAK1 [1] was not above 1 µM; at human JAK2, more than 2 µM. Also, the JAK2/JAK1 in the test on human JAK1 [2] is more than 10.
With `C[C@@H](O)c1nc2cnc3ccsc3c2n1[C@H]1CCCN(C(=O)CCc2cn[nH]c2)C1` [Example 53, (1R)-1-(1-{(3S)-1-[3-(1H-Pyrazol-4-yl)propanoyl]piperidin-3-yl}-1H-imidazo[4,5-d]thieno[3,2-b]pyridin-2-yl)ethanol], the IC50 at human JAK1 [1] is not above 1 µM. Also, in the test with human JAK1 [2], the JAK2/JAK1 is listed as more than 10. At human JAK2, the “JAK2 IC50 (nM)” value was “+++++”.
The matching figures for `C[C@@H](O)c1nc2cnc3ccsc3c2n1[C@H]1CCCN(C(=O)CCc2cccnc2)C1` [Example 54, (1R)-1-{1-[(3S)-1-(3-Pyridin-3-ylpropanoyl)piperidin-3-yl]-1H-imidazo[4,5-d]thieno[3,2-b]pyridin-2-yl}ethanol]: not above 1 µM, more than 10 and “+++++”.
Turning to `CC(CC(=O)N1CCC[C@H](n2c([C@@H](C)O)nc3cnc4ccsc4c32)C1)c1ccccc1` (stereo partly drawn) [Example 55, (1R)-1-{1-[(3S)-1-(3-Phenylbutanoyl)piperidin-3-yl]-1H-imidazo[4,5-d]thieno[3,2-b]pyridin-2-yl}ethanol], at human JAK1 [1], the 50% inhibitory concentration (IC50) was not above 1 µM. The JAK2/JAK1 in the test with human JAK1 [2] is more than 10. In addition, the “JAK2 IC50 (nM)” value on human JAK2 is recorded as “+++++”.
The matching figures for `C[C@@H](O)c1nc2cnc3ccsc3c2n1[C@H]1CCCN(CCC#N)C1` [Example 56, 3-((3S)-3-{2-[(1R)-1-Hydroxyethyl]-1H-imidazo[4,5-d]thieno[3,2-b]pyridin-1-yl}piperidin-1-yl)propanenitrile]: not above 1 µM, more than 10 and “+++++”.
`C[C@@H](O)c1nc2cnc3ccsc3c2n1[C@H]1CCCN(C(=O)CCc2ccccc2)C1` [Example 57]: the concentration for half-maximal inhibition (IC50) against human JAK1 [1] is not above 0.1 µM; at human JAK2, more than 2 µM. Moreover, in the test on human JAK1 [2], the JAK2/JAK1 is on record as more than 10.
As to `C[C@@H](O)c1nc2cnc3ccsc3c2n1[C@H]1CCCN(C(=O)CCC#N)C1` [Example 58, 4-((3S)-3-{2-[(1R)-1-Hydroxyethyl]-1H-imidazo[4,5-d]thieno[3,2-b]pyridin-1-yl}piperidin-1-yl)-4-oxobutanenitrile], at human JAK1 [1], the IC50 was not above 0.1 µM. Further, the JAK2/JAK1 with human JAK1 [2] is more than 10. The “JAK2 IC50 (nM)” value at human JAK2 was “+++++”.
The like results for `C[C@@H](O)c1nc2cnc3ccsc3c2n1[C@H]1CCCN(C(=O)CCCC#N)C1` [Example 59, 5-((3S)-3-{2-[(1R)-1-Hydroxyethyl]-1H-imidazo[4,5-d]thieno[3,2-b]pyridin-1-yl}piperidin-1-yl)-5-oxopentanenitrile] were, in that order, not above 1 µM, more than 10 and “+++++”.
For the molecule `C[C@@H](O)c1nc2cnc3ccsc3c2n1C1CCN(CCCC(F)(F)F)CC1` [Example 60, (1R)-1-{1-[1-(4,4,4-Trifluorobutyl)piperidin-4-yl]-1H-imidazo[4,5-d]thieno[3,2-b]pyridin-2-yl}ethanol], on human JAK1 [1], the IC50 is not above 1 µM. Further, the JAK2/JAK1 in the test on human JAK1 [2] is more than 10. The “JAK2 IC50 (nM)” value on human JAK2 is on record as “+++++”.
The like results for `C[C@@H](O)c1nc2cnc3ccsc3c2n1C1CCN(CC#N)CC1.O=C(O)C(F)(F)F` [Example 61, (4-{2-[(1R)-1-Hydroxyethyl]-1H-imidazo[4,5-d]thieno[3,2-b]pyridin-1-yl}piperidin-1-yl)acetonitrile trifluoroacetate] were, in that order, not above 1 µM, more than 10 and “+++++”.
As for `C[C@@H](O)c1nc2cnc3ccsc3c2n1[C@H]1CCN(CCC#N)C1` [Example 62, 3-((3S)-3-{2-[(1R)-1-Hydroxyethyl]-1H-imidazo[4,5-d]thieno[3,2-b]pyridin-1-yl}pyrrolidin-1-yl)propanenitrile], the concentration for half-maximal inhibition (IC50) against human JAK1 [1] was not above 1 µM; against human JAK2, more than 2 µM. The JAK2/JAK1 with human JAK1 [2] is on record as more than 10.
As for `C[C@@H](O)c1nc2cnc3ccsc3c2n1[C@H]1CCN(C(=O)CC#N)C1` [Example 63, 3-((3S)-3-{2-[(1R)-1-Hydroxyethyl]-1H-imidazo[4,5-d]thieno[3,2-b]pyridin-1-yl}pyrrolidin-1-yl)-3-oxopropanenitrile], the concentration for half-maximal inhibition (IC50) at human JAK1 [1] is not above 2 µM. Also, the JAK2/JAK1 in the test with human JAK1 [2] is recorded as more than 6. Besides, the “JAK2 IC50 (nM)” value at human JAK2 is on record as “+++++”.
The like results for `C[C@@H](O)c1nc2cnc3ccsc3c2n1[C@H]1CCN(CCCC(F)(F)F)C1` [Example 64, (1R)-1-{1-[(3S)-1-(4,4,4-Trifluorobutyl)pyrrolidin-3-yl]-1H-imidazo[4,5-d]thieno[3,2-b]pyridin-2-yl}ethanol] were, in that order, not above 0.1 µM, more than 10 and “+++++”.
The like results for `C[C@@H](O)c1nc2cnc3ccsc3c2n1[C@H]1CCN(CCCC#N)C1` [Example 65, 4-((3S)-3-{2-[(1R)-1-Hydroxyethyl]-1H-imidazo[4,5-d]thieno[3,2-b]pyridin-1-yl}pyrrolidin-1-yl)butanenitrile] were, in that order, not above 1 µM, more than 10 and “+++++”.
